Source: patent US20230285570A1, “THERAPEUTICALLY USEFUL CURE-PRO MOLECULES FOR E3 LIGASE MEDIATED DEGRADATION OF PROTEINS, AND METHODS OF MAKING AND USING THEM” (CORNELL UNIVERSITY, priority 2020, published 2023)
“Also recorded” adds a separate entry of the source.

Key:
Type in all cases: cell-based
BRD4 [1] = target: T1, BRD4 (Homo sapiens, UniProt O60885); assay: CURE-PRO-mediated BRD4 degradation in HeLa cells, Western blot; set-up: endogenous in cells; host or cells: HeLa; details: 24 h; for BRD4 degradation: 10 μM each
Summary of the method: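 HeLa cells (2.5×10^6) treated 24 h with DMSO-solubilized compounds, degrader pairs combined 1:1, at 1 nM-1 μM, 1-10 μM, 10 μM or 10 and 100 μM each depending on series. RIPA lysates (10-20 μg protein) run on SDS-PAGE and immunoblotted for BRD4 with ECL detection.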

BRD4 [2] = target: T1, BRD4; assay: CURE-PRO-mediated BRD4 degradation in HCT116 cells, WES (ProteinSimple); set-up: endogenous in cells; details: 1 μM-10 μM each
Procedure: All cell lines were purchased from ATCC or DSMZ and grown at 37° C. with 5% CO2. Human HeLa cells were cultured in complete growth medium (Dulbecco's modified Eagle's medium (DMEM) supplemented with 10% FBS); MCF7 cells were cultured in complete growth medium (Dulbecco's modified Eagle's medium (DMEM) supplemented with 10% FBS and 0.01 mg/ml human recombinant insulin (Sigma Aldrich); Namalwa and Ramos cells were cultured in complete growth medium (RPMI 1640 medium supplemented with 10% FBS); HCT116 and HT29 cells were cultured in complete growth medium (McCoy's 5a Medium supplemented with 10% FBS). For cellular degradation of BRD4 studies cells were seeded in a 12-well plate at 70-80% confluency, allowed to attach overnight, and incubated with the indicated compounds for the indicated time. When indicated, a 15-minute pretreatment with 10 μM pomalidomide, 10 μM VHL298, 10 μM Nutlin3a, 1 μM MG-132 or 1 μM Carfilzomib was performed before the addition of CURE-PROs. For washout studies, after CURE-PRO treatment, media was aspirated and incubated with complete medium for the indicated time before lysis.
WES Simple analysis was performed on WES system (ProteinSimple-Biotechne) according to the manufacturer's instructions. Total protein concentrations of cell lysates were determined by the Pierce BCA kit (Thermo Fisher). 3 μL of 0.3 μg/μL of the protein lysate was loaded onto a 12- to 230-kDa WES assay plate (ProteinSimple) where 300 nL sample was withdrawn through a capillary, subjected to electrophoretic separation of proteins by size, and followed by the simultaneous, HRP-based detection of proteins using the Anti-Rabbit Detection Module (Proteinsimple: #DM-001). The electropherograms were checked then the automatic peak detection was manually corrected if it was required.
(§1) HCT116 cells (3×10^6) were treated for 24 hours with the compounds solubilized in DMSO. Compounds were added at 1 μM-10 μM each. Standardized protein samples were electrophoresed and imaged as described in the WES ProteinSimple section above. FIGS. 59, 60, and 61 depict the concentration-dependence of CURE-PRO-mediated BRD4 degradation using MDM2 ligands.
as §1, with “62” for “59, 60,”, “63” for “61”
HCT116 cells (3×10^6) were treated for 24 hours with the compounds solubilized in DMSO. CURE-PRO monomers were added at 10 μM each and the proteasomal inhibitors at 1 μM. Standardized protein samples were electrophoresed and imaged as described in the WES ProteinSimple section above. FIG. 68 depicts the dependence of the proteasome for CURE-PRO-mediated BRD4 degradation.

BRD4 [3] = target: T1, BRD4; assay: Summary of BRD4 degradation by CURE-PRO pairs, estimated from Western Blot or WES; set-up: endogenous in cells; details: for Degradation of BRD4, combination with CRBN ligand 8047: Table 1, aryl-boronic acid BRD4 ligand + 8047; for Degradation of BRD4, combination with MDM2 ligand 8314: Table 2, aryl-boronic acid BRD4 ligand + 8314; for Degradation of BRD4, combination with CRBN ligand 8046: Table 1, aryl-boronic acid BRD4 ligand + 8046; for Degradation of BRD4, combination with CRBN ligand 8066: Table 1, aryl-boronic acid BRD4 ligand + 8066
Summary of the method: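 Namalwa, Ramos, HeLa, MCF7, HT29 or HCT116 cells treated 24 h with compounds in DMSO; RIPA lysates analysed by Western blot (ECL) or capillary WES immunodetection. Check mark denotes 30% to 70% or higher protein degradation.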

MV-4-11 cells = assay: CellTiter-Glo cell viability, MV-4-11 cells; details: for loss of cellular viability (toxicity) versus monomers alone: cotreated 1:1 with each of CRBN ligands 8046, 8047 and 8066, MV-4-11, 72 h, 10 nM-100 μM
Procedure: CellTiter-Glo® 2.0 Cell Viability Assay (Promega) was carried out following the manufacturer's recommendations. Cells were seeded at a density of 1000 cells/well in a white 96 well plates (Corning, #3917) in a total volume of 100 μl with respective monomers, combinations of BRD ligands together with E3 ligase ligands or vehicle control treatment. After a 72 h incubation, 100 ul of the CellTiter-Glo® substrate was added per well and luminescence was read on a Spectramax M5 (Molecular Devices). Dose-response curves were generated using Graphpad Prism software.
MV-4-11 cells (5×10^4) were treated for 24 hours with the sample compounds solubilized in DMSO. The compounds were added at 1 nM-100 μM each. Cellular viability was determined using the CellTiter-Glo® Luminescent Cell Viability Assay (Promega) described above. FIGS. 19-22 depict the CURE-PRO-mediated loss of cellular viability for BRD monomers (JQ1 derivatives comprising of catechol linkers), and CRBN ligand, 8049 (pomalidomide derivatives comprising boronic acid linkers) combined in a 1:1 ratio.
MV-4-11 cells (1×10^4) were treated for 72 hours with the compounds solubilized in DMSO. Compounds were added at 10 nM-100 μM each. Cellular viability was determined using the CellTiter-Glo® Luminescent Cell Viability Assay (Promega) described above. FIGS. 47-54 depict the CURE-PRO-mediated loss of cellular viability for BRD monomers (JQ1 derivatives comprising of boronic acid linkers), and CRBN ligands, 8046, 8047 and 8066 (pomalidomide derivatives comprising diol linkers) combined in a 1:1 ratio.

[4] = 1:1 with MDM2 ligand 8313, HCT116, 24 h
[5] = 1:1 with MDM2 ligand 8314, HCT116, 24 h
[6] = co-treated 1:1 with CRBN ligand 8046, HeLa
[7] = co-treated 1:1 with CRBN ligand 8066, HeLa

SMILES | Degradation of BRD4, combination with CRBN ligand 8047 (BRD4 [3]) | BRD4 degradation (BRD4 [1]; [6]) | BRD4 degradation (BRD4 [1]; [7]) | Degradation of BRD4, combination with CRBN ligand 8046 (BRD4 [3]) | Degradation of BRD4, combination with CRBN ligand 8066 (BRD4 [3]) | loss of cellular viability (toxicity) versus monomers alone (MV-4-11 cells) | other results
CCNC(=O)C[C@@H]1N=C(c2ccc(Cl)cc2)c2cc(OCCNC(=O)c3cccc(B(O)O)c3)ccc2-n2c(C)nnc21 [BRD-E21, (3-((2-(((4S)-6-(4-chlorophenyl)-4-(2-(ethylamino)-2-oxoethyl)-1-methyl-4H-benzo[f][1,2,4]triazolo[4,3-a][1,4]diazepin-8-yl)oxy)ethyl)carbamoyl)phenyl)boronic acid] | √ (A black check mark indicates efficacy of 30% to 70% or higher protein degradation) |  |  |  |  |  | concentration from which BRD4 degradation is observed (BRD4 [1]; 1:1 with CRBN ligand 8047, HeLa, 1 nM-1 μM each): ≥ 10 nM; BRD4 expression (BRD4 [1]; BRD monomer alone, HeLa, 1 nM-1 μM): no change in expression is observed; BRD4 degradation (BRD4 [2]; [4]): had no effect on BRD4 protein levels; BRD4 degradation (BRD4 [2]; [5]): caused partial loss of the BRD4 protein; also recorded: Degradation is observed; Degradation of BRD4, combination with MDM2 ligand 8314 (BRD4 [3]): √ (A black check mark indicates efficacy of 30% to 70% or higher protein degradation)
COc1ccc2c(c1)C(c1ccc(Cl)cc1)=N[C@@H](CC(=O)NCCNC(=O)/C=C/c1ccc(B(O)O)cc1)c1nnc(C)n1-2 [BRD-E29, (4-((E)-3-((2-(2-((4S)-6-(4-chlorophenyl)-8-methoxy-1-methyl-4H-benzo[f][1,2,4]triazolo[4,3-a][1,4]diazepin-4-yl)acetamido)ethyl)amino)-3-oxoprop-1-en-1-yl)phenyl)boronic acid] | √ (A black check mark indicates efficacy of 30% to 70% or higher protein degradation) | causes degradation of BRD4; also recorded: Degradation is noted | causes degradation of BRD4; also recorded: Degradation is noted | √ (A black check mark indicates efficacy of 30% to 70% or higher protein degradation) | √ (A black check mark indicates efficacy of 30% to 70% or higher protein degradation) | reduced viability; also recorded: increased toxicity | BRD4 degradation (BRD4 [1]; co-treated 1:1 with CRBN ligand 8047, HeLa): causes degradation of BRD4; also recorded: Degradation is noted
COc1ccc2c(c1)C(c1ccc(Cl)cc1)=N[C@@H](CC(=O)NCCOCCOCCNC(=O)c1cccc(B(O)O)c1)c1nnc(C)n1-2 [BRD-E46] |  | causes degradation of BRD4; also recorded: Degradation is noted | causes degradation of BRD4; also recorded: Degradation is noted | √ (A black check mark indicates efficacy of 30% to 70% or higher protein degradation) | √ (A black check mark indicates efficacy of 30% to 70% or higher protein degradation) | reduced viability; also recorded: increased toxicity | 
COc1ccc2c(c1)C(c1ccc(Cl)cc1)=N[C@@H](CC(=O)Nc1cccc(B(O)O)c1)c1nnc(C)n1-2 [BRD-E73, (3-(2-((4S)-6-(4-chlorophenyl)-8-methoxy-1-methyl-4H-benzo[f][1,2,4]triazolo[4,3-a][1,4]diazepin-4-yl)acetamido)phenyl)boronic acid] |  |  |  |  |  | reduced viability; also recorded: increased toxicity | 
CCNC(=O)C[C@@H]1N=C(c2ccc(Cl)cc2)c2cc(Sc3ccc(B(O)O)cc3)ccc2-n2c(C)nnc21 [BRD-E75, (4-(((4S)-6-(4-chlorophenyl)-4-(2-(ethylamino)-2-oxoethyl)-1-methyl-4H-benzo[f][1,2,4]triazolo[4,3-a][1,4]diazepin-8-yl)thio)phenyl)boronic acid] |  |  |  |  |  | reduced viability; also recorded: increased toxicity | Degradation of BRD4, combination with MDM2 ligand 8314 (BRD4 [3]): √ (A black check mark indicates efficacy of 30% to 70% or higher protein degradation)
CCNC(=O)C[C@@H]1N=C(c2ccc(Cl)cc2)c2cc(OCCCCCCCNC(=O)c3ccc(B(O)O)cc3)ccc2-n2c(C)nnc21 [BRD-E78] |  |  |  |  |  | reduced viability; also recorded: increased toxicity | Degradation of BRD4, combination with VHL ligand 8305 (BRD4 [3]; Table 3, aryl-boronic acid BRD4 ligand + 8305): √ (A black check mark indicates efficacy of 30% to 70% or higher protein degradation)
CCNC(=O)C[C@@H]1N=C(c2ccc(Cl)cc2)c2cc(OCCCCCCNC(=O)c3ccc(B(O)O)cc3)ccc2-n2c(C)nnc21 [BRD-E79, (4-((6-(((4S)-6-(4-chlorophenyl)-4-(2-(ethylamino)-2-oxoethyl)-1-methyl-4H-benzo[f][1,2,4]triazolo[4,3-a][1,4]diazepin-8-yl)oxy)hexyl)carbamoyl)phenyl)boronic acid] | √ (A black check mark indicates efficacy of 30% to 70% or higher protein degradation) | causes degradation of BRD4; also recorded: Degradation is noted | causes degradation of BRD4; also recorded: Degradation is noted | √ (A black check mark indicates efficacy of 30% to 70% or higher protein degradation) | √ (A black check mark indicates efficacy of 30% to 70% or higher protein degradation) |  | BRD4 degradation (BRD4 [2]; [4]): caused BRD4 protein degradation at 1 and 10 μM; also recorded: Degradation of BRD4 is observed; BRD4 degradation (BRD4 [2]; [5]): no protein loss was observed; Degradation of BRD4, combination with MDM2 ligand 8313 (BRD4 [3]; Table 2, aryl-boronic acid BRD4 ligand + 8313): √ (A black check mark indicates efficacy of 30% to 70% or higher protein degradation)
COc1ccc2c(c1)C(c1ccc(Cl)cc1)=N[C@@H](CC(=O)NCCCCCNC(=O)c1cccc(O)c1O)c1nnc(C)n1-2 [BRD-N8, N-(5-(2-((4S)-6-(4-chlorophenyl)-8-methoxy-1-methyl-4H-benzo[f][1,2,4]triazolo[4,3-a][1,4]diazepin-4-yl)acetamido)pentyl)-2,3-dihydroxybenzamide] |  |  |  |  |  |  | loss of cellular viability (toxicity) (MV-4-11 cells; co-dosed 1:1 with CRBN ligand 8049, MV-4-11, 24 h, 1 nM-100 μM each): concentration-dependent loss in cellular viability; also recorded: increased toxicity
